Legend:
[1] = test system: MV-4-11 cells; experiment: Inhibition of proliferation of myeloid monocytic leukemia cells MV-4-11 (cell viability assay, 96 h); format: cell-based, human; conditions: read-out: inhibitory activity (IC50) against tumor cells proliferation, MV-4-11
Method: (§1) The tumor cells used herein were cultured in a cell culture medium listed in table 2 at 37 °C in an incubator with 5% CO2. Prior to experimentation, all cell lines used were correctly identified by STR profiling, and tested negative for Mycoplasma contamination using a Mycoplasma detection kit through routine screenings.
(§2) The IC50 values of the compounds of the present disclosure (including the compounds in Table 1, and Examples 1-498) were determined using the CellTiter-Meiluncell Luminescent Cell Viability Assay Kit from Dalian Meilun Biotech Co., Ltd. The detailed procedure is as follows: Tumor cells were seeded in 96-well cell culture plates at the densities specified in Table 3. On the following day, the test compounds of the present disclosure were subjected to serial dilution. […] Subsequently, 0.5 μL of the test compound dilution was transferred into the 96-well plate containing the cells, with each well containing 100 μL of cell culture medium. […] Into the 96-well plate, the diluted test compounds and corresponding detection reagents were added, resulting in final test compound concentrations of 500 nM and 10 nM, respectively. The experimental procedure is described below using the diluted 2 μM test compound as an example.
(§3) 0.5 μL of the aforementioned diluted compound of the present disclosure (including the compounds in Table 1, and Examples 1-498) was added to the seeded cells in 100 μL of medium, yielding a final test compound concentration of 10 nM. After the cells were treated with the compounds of the present disclosure for a specified period, the cell viability assay reagent was added to the culture medium according to the kit's instructions to determine cell viability. […] All controls were treated using the same procedure as the compounds of the present disclosure. The growth inhibition curves for the compounds of the present disclosure were plotted using Prism GraphPad software, and the IC50 values were calculated therefrom.

[2] = biological target: T1, WEE1 (Homo sapiens, UniProt P30291+Q96SW2); experiment: Western blot degradation of WEE1 in hPBMCs (24 h); format: cell-based; conditions: compounds at 50 nM and 500 nM
T1 construct: The supernatant was aspirated as the extracted total cell protein; endogenous in cells; host or cells: human peripheral blood mononuclear cells (hPBMCs)
T1 sequence (P30291 whole entry): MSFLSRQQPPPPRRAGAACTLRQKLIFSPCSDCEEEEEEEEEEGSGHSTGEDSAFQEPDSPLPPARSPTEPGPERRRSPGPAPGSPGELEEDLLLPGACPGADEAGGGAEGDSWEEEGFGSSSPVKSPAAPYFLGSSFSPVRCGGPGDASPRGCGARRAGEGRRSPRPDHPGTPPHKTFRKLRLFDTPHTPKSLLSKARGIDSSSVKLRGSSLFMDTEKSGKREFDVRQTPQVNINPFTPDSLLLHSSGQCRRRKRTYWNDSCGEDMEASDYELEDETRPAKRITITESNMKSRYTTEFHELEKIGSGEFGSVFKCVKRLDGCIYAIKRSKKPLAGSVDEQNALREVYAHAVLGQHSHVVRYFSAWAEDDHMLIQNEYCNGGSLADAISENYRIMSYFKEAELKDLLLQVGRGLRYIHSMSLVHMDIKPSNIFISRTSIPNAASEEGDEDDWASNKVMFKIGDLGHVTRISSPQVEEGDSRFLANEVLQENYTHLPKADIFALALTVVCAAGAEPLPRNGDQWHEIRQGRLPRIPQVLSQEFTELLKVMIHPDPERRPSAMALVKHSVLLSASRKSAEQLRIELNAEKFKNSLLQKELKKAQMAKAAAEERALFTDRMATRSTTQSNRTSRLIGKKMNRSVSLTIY
T1 sequence (Q96SW2 whole entry): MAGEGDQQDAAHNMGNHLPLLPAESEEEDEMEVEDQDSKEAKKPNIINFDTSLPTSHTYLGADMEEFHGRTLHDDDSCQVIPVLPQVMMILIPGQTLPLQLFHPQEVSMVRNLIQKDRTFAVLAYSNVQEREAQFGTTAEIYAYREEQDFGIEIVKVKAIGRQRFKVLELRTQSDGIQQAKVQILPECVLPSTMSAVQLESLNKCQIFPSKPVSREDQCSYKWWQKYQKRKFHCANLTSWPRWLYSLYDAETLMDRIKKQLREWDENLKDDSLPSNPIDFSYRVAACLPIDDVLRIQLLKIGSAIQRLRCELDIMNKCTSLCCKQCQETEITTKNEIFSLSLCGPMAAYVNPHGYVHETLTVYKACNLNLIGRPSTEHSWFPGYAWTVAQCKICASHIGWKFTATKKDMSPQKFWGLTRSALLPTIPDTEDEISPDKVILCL
T1 sequence (Q16531 whole entry partner): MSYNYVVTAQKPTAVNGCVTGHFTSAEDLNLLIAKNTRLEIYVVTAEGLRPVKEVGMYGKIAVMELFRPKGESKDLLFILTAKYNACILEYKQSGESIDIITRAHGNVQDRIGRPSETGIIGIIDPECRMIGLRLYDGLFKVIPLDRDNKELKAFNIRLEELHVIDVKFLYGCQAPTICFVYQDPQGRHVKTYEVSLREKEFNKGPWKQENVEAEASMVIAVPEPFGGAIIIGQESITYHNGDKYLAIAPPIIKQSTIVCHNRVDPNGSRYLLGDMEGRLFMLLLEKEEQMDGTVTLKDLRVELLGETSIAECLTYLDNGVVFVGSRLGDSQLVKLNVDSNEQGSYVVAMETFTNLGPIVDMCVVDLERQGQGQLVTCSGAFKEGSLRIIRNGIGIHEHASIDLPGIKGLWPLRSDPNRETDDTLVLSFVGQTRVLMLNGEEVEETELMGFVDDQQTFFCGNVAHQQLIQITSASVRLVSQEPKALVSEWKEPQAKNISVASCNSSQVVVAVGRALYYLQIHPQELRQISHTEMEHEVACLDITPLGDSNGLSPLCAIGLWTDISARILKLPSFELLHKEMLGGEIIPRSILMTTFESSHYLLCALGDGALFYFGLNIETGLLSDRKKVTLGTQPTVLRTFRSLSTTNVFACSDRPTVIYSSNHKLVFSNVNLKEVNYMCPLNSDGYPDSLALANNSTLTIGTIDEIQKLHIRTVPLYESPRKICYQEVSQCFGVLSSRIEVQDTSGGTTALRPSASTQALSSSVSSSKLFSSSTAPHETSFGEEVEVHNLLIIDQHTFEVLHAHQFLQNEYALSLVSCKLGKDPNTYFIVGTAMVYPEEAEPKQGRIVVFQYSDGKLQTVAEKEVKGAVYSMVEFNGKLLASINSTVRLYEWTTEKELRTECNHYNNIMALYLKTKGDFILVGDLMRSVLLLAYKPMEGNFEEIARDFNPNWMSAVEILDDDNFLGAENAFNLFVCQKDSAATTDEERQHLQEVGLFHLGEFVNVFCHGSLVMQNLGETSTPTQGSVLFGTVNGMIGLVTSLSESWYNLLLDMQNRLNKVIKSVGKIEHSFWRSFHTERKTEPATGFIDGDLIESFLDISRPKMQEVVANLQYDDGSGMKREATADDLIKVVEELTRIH
How it was run: (§4)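 hPBMCs (1×10^6 cells/mL) exposed to compound at 50 nM and 500 nM for 24 h, DMSO as reference. Lysates run on SDS-PAGE and immunoblotted. Band grayscale normalized to internal control gives % protein remaining; DC50 from fitted concentration-response of band intensity versus DMSO.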

[3] = biological target: T2, IKZF1 (Homo sapiens, UniProt Q13422+Q96SW2); experiment: Western blot degradation of IKZF1 in hPBMCs (24 h); format: cell-based; conditions: compounds at 50 nM and 500 nM
T2 construct: The supernatant was aspirated as the extracted total cell protein; endogenous in cells; host or cells: human peripheral blood mononuclear cells (hPBMCs)
T2 sequence (Q13422 whole entry): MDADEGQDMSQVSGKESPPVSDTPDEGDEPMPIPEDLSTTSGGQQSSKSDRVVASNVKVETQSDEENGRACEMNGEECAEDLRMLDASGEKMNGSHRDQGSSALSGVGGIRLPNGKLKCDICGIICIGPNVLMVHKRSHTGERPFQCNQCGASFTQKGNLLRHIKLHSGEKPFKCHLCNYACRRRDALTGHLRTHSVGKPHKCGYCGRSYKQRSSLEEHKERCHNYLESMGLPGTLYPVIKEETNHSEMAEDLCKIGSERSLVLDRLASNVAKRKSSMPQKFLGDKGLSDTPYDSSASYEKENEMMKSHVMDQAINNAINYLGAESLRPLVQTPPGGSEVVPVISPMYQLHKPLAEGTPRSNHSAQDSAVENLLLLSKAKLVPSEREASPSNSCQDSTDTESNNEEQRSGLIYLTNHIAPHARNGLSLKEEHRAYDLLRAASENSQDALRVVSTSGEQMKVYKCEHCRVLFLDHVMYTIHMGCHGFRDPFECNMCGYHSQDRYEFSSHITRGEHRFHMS
T2 sequence (Q96SW2 whole entry): as the sequence (Q96SW2 whole entry) above
T2 sequence (Q16531 whole entry partner): as the sequence (Q16531 whole entry partner) above
How it was run: as §4

[4] = biological target: T3, IKZF2 (Homo sapiens, UniProt Q96SW2+Q9UKS7); experiment: Western blot degradation of IKZF2 in hPBMCs (24 h); format: cell-based; conditions: compounds at 50 nM and 500 nM
T3 construct: The supernatant was aspirated as the extracted total cell protein; endogenous in cells; host or cells: human peripheral blood mononuclear cells (hPBMCs)
T3 sequence (Q9UKS7 whole entry): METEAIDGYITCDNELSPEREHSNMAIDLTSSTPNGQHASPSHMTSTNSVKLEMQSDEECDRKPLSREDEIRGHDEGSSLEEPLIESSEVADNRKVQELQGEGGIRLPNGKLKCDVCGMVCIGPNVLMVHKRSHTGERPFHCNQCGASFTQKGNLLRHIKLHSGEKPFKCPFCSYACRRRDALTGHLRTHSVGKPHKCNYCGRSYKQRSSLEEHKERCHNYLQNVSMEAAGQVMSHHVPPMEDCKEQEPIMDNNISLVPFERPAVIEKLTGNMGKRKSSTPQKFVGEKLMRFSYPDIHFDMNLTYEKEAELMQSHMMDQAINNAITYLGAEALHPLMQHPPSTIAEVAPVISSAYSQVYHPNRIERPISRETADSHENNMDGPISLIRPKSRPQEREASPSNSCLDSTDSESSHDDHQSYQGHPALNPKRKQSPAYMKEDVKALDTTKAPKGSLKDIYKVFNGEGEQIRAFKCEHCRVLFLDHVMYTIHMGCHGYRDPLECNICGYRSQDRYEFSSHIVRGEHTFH
T3 sequence (Q96SW2 whole entry): as the sequence (Q96SW2 whole entry) above
T3 sequence (Q16531 whole entry partner): as the sequence (Q16531 whole entry partner) above
How it was run: as §4

[5] = biological target: T4, IKZF3 (Homo sapiens, UniProt Q96SW2+Q9UKT9); experiment: Western blot degradation of IKZF3 in hPBMCs (24 h); format: cell-based; conditions: compounds at 50 nM and 500 nM
T4 construct: The supernatant was aspirated as the extracted total cell protein; endogenous in cells; host or cells: human peripheral blood mononuclear cells (hPBMCs)
T4 sequence (Q9UKT9 whole entry): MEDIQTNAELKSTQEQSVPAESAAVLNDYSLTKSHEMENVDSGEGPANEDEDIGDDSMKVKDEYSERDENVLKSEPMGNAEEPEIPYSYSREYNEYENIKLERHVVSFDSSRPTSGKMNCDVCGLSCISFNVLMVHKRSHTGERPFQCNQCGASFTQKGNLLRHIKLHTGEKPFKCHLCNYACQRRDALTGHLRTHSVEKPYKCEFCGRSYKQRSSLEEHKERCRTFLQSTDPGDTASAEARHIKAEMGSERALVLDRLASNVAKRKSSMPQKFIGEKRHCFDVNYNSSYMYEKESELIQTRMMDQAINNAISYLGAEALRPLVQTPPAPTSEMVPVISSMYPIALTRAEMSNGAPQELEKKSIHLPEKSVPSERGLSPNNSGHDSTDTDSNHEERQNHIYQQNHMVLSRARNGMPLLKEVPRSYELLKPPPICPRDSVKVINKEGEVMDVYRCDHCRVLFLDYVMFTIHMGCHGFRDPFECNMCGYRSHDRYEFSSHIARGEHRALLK
T4 sequence (Q96SW2 whole entry): as the sequence (Q96SW2 whole entry) above
T4 sequence (Q16531 whole entry partner): as the sequence (Q16531 whole entry partner) above
How it was run: as §4

[6] = biological target: T5, CK1α (Homo sapiens, UniProt P48729+Q96SW2); experiment: Western blot degradation of CK1α in hPBMCs (24 h); format: cell-based; conditions: compounds at 50 nM and 500 nM
T5 construct: The supernatant was aspirated as the extracted total cell protein; endogenous in cells; host or cells: human peripheral blood mononuclear cells (hPBMCs)
How it was run: as §4

[7] = biological target: T6, GSPT1 (Homo sapiens, UniProt P15170+Q96SW2); experiment: Western blot degradation of GSPT1 in hPBMCs (24 h); format: cell-based; conditions: compounds at 50 nM and 500 nM
T6 construct: The supernatant was aspirated as the extracted total cell protein; endogenous in cells; host or cells: human peripheral blood mononuclear cells (hPBMCs)
T6 sequence (P15170 whole entry): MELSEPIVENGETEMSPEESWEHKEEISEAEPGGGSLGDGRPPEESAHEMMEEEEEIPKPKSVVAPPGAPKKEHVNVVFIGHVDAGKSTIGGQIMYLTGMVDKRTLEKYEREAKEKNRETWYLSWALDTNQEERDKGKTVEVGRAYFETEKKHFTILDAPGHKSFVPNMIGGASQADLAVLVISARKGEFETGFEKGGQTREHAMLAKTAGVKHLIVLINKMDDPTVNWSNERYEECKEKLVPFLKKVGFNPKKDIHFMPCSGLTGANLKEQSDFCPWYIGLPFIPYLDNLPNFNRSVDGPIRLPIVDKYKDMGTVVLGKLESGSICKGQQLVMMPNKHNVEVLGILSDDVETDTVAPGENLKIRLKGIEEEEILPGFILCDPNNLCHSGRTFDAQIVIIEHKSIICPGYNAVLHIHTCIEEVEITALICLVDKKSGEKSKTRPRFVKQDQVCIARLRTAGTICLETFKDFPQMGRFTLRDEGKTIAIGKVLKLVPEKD
T6 sequence (Q96SW2 whole entry): as the sequence (Q96SW2 whole entry) above
T6 sequence (Q16531 whole entry partner): as the sequence (Q16531 whole entry partner) above
How it was run: as §4

[8] = test system: Jurkat cells; experiment: Inhibition of proliferation of T lymphocytic leukemia cells Jurkat (cell viability assay, 96 h); format: cell-based, human; conditions: read-out: inhibitory activity (IC50) against tumor cells proliferation, Jurkat
Method: as §1, §2, §3

Row | Structure (SMILES) | IC50 [1] [nM] | WEE1 substrate protein remaining % [2] | IKZF1 substrate protein remaining % [3] | IKZF2 substrate protein remaining % [4] | IKZF3 substrate protein remaining % [5] | CK1α substrate protein remaining % [6] | GSPT1 substrate protein remaining % [7] | IC50 [8] [nM]
1 | O=C1CCN(N2Cc3cc(CN4CCN(c5ccc(F)cc5)CC4)ccc3C2=O)C(=O)N1 [GT-06702, 1-(5-((4-(4-fluorophenyl)piperazin-1-yl)methyl)-1-oxoisoindolin-2-yl)dihydropyrimidine-2,4(1H,3H)-dione] | 500 to 1000 | B (80%< substrate protein remaining % ≤100%) | B (80%< substrate protein remaining % ≤100%) | B (80%< substrate protein remaining % ≤100%) | B (80%< substrate protein remaining % ≤100%) | A (0% ≤ substrate protein remaining % ≤80%) | A (0% ≤ substrate protein remaining % ≤80%) | 
2 | O=C1CCN(N2Cc3cc(CN4CCN(c5ccccc5Cl)CC4)ccc3C2=O)C(=O)N1 [GT-06703, 1-(5-((4-(2-chlorophenyl)piperazin-1-yl)methyl)-1-oxoisoindolin-2-yl)dihydropyrimidine-2,4(1H,3H)-dione] | 500 to 1000 | B (80%< substrate protein remaining % ≤100%) | B (80%< substrate protein remaining % ≤100%) | B (80%< substrate protein remaining % ≤100%) | B (80%< substrate protein remaining % ≤100%) | A (0% ≤ substrate protein remaining % ≤80%) | A (0% ≤ substrate protein remaining % ≤80%) | 
3 | O=C1CCN(N2Cc3cc(CN4CCN(c5ccc(Cl)cc5)CC4)ccc3C2=O)C(=O)N1 [GT-06765, 1-(5-((4-(4-chlorophenyl)piperazin-1-yl)methyl)-1-oxoisoindolin-2-yl)dihydropyrimidine-2,4(1H,3H)-dione] | 500 to 1000 | B (80%< substrate protein remaining % ≤100%) | B (80%< substrate protein remaining % ≤100%) | B (80%< substrate protein remaining % ≤100%) | B (80%< substrate protein remaining % ≤100%) | A (0% ≤ substrate protein remaining % ≤80%) | B (80%< substrate protein remaining % ≤100%) | 
4 | O=C1CCN(N2Cc3cc(CN4CCN(c5ccccc5Br)CC4)ccc3C2=O)C(=O)N1 [GT-06766, 1-(5-((4-(2-bromophenyl)piperazin-1-yl)methyl)-1-oxoisoindolin-2-yl)dihydropyrimidine-2,4(1H,3H)-dione] | 500 to 1000 | A (0% ≤ substrate protein remaining % ≤80%) | A (0% ≤ substrate protein remaining % ≤80%) | A (0% ≤ substrate protein remaining % ≤80%) | A (0% ≤ substrate protein remaining % ≤80%) | A (0% ≤ substrate protein remaining % ≤80%) | A (0% ≤ substrate protein remaining % ≤80%) | 
5 | Cc1cccc(N2CCN(Cc3ccc4c(c3)CN(N3CCC(=O)NC3=O)C4=O)CC2)c1 [GT-06770, 1-(1-oxo-5-((4-(m-tolyl)piperazin-1-yl)methyl)isoindolin-2-yl)dihydropyrimidine-2,4(1H,3H)-dione] | 500 to 1000 | A (0% ≤ substrate protein remaining % ≤80%) | A (0% ≤ substrate protein remaining % ≤80%) | A (0% ≤ substrate protein remaining % ≤80%) | A (0% ≤ substrate protein remaining % ≤80%) | A (0% ≤ substrate protein remaining % ≤80%) | A (0% ≤ substrate protein remaining % ≤80%) | 500 to 1000
6 | O=C1CCN(N2Cc3cc(CN4CCN(c5cc(Cl)ccc5Cl)CC4)ccc3C2=O)C(=O)N1 [GT-06773, 1-(5-((4-(2,5-dichlorophenyl)piperazin-1-yl)methyl)-1-oxoisoindolin-2-yl)dihydropyrimidine-2,4(1H,3H)-dione] | 100 to 300 | A (0% ≤ substrate protein remaining % ≤80%) | B (80%< substrate protein remaining % ≤100%) | A (0% ≤ substrate protein remaining % ≤80%) | A (0% ≤ substrate protein remaining % ≤80%) | A (0% ≤ substrate protein remaining % ≤80%) | A (0% ≤ substrate protein remaining % ≤80%) | 
7 | O=C1CCN(N2Cc3cc(CN4CCN(c5cc(Cl)cc(Cl)c5)CC4)ccc3C2=O)C(=O)N1 [GT-06776, 1-(5-((4-(3,5-dichlorophenyl)piperazin-1-yl)methyl)-1-oxoisoindolin-2-yl)dihydropyrimidine-2,4(1H,3H)-dione] | 100 to 300 | A (0% ≤ substrate protein remaining % ≤80%) | B (80%< substrate protein remaining % ≤100%) | A (0% ≤ substrate protein remaining % ≤80%) | B (80%< substrate protein remaining % ≤100%) | A (0% ≤ substrate protein remaining % ≤80%) | A (0% ≤ substrate protein remaining % ≤80%) | 500 to 1000
8 | O=C1CCN(N2Cc3cc(CN4CCN(c5cccc(F)c5F)CC4)ccc3C2=O)C(=O)N1 [GT-06777, 1-(5-((4-(2,3-difluorophenyl)piperazin-1-yl)methyl)-1-oxoisoindolin-2-yl)dihydropyrimidine-2,4(1H,3H)-dione] | 300 to 500 | A (0% ≤ substrate protein remaining % ≤80%) | B (80%< substrate protein remaining % ≤100%) | A (0% ≤ substrate protein remaining % ≤80%) | B (80%< substrate protein remaining % ≤100%) | A (0% ≤ substrate protein remaining % ≤80%) | A (0% ≤ substrate protein remaining % ≤80%) | 
9 | O=C1CCN(N2Cc3cc(CN4CCC(c5ccccc5)CC4)ccc3C2=O)C(=O)N1 [GT-06884, 1-(1-oxo-5-((4-phenylpiperidin-1-yl)methyl)isoindolin-2-yl)dihydropyrimidine-2,4(1H,3H)-dione] | 500 to 1000 | B (80%< substrate protein remaining % ≤100%) | B (80%< substrate protein remaining % ≤100%) | B (80%< substrate protein remaining % ≤100%) | B (80%< substrate protein remaining % ≤100%) | B (80%< substrate protein remaining % ≤100%) | A (0% ≤ substrate protein remaining % ≤80%) | 
10 | O=C1CCN(N2Cc3cc(CN4CCC(c5cccc(Br)c5)CC4)ccc3C2=O)C(=O)N1 [GT-06885, 1-(5-((4-(3-bromophenyl)piperidin-1-yl)methyl)-1-oxoisoindolin-2-yl)dihydropyrimidine-2,4(1H,3H)-dione] | 100 to 300 | B (80%< substrate protein remaining % ≤100%) | A (0% ≤ substrate protein remaining % ≤80%) | A (0% ≤ substrate protein remaining % ≤80%) | B (80%< substrate protein remaining % ≤100%) | B (80%< substrate protein remaining % ≤100%) | A (0% ≤ substrate protein remaining % ≤80%) | 
11 | O=C1CCN(N2Cc3cc(CN4CCC(c5cccc(C(F)(F)F)c5)CC4)ccc3C2=O)C(=O)N1 [GT-06892, 1-(1-oxo-5-((4-(3-(trifluoromethyl)phenyl)piperidin-1-yl)methyl)isoindolin-2-yl)dihydropyrimidine-2,4(1H,3H)-dione] | 500 to 1000 | B (80%< substrate protein remaining % ≤100%) | A (0% ≤ substrate protein remaining % ≤80%) | A (0% ≤ substrate protein remaining % ≤80%) | B (80%< substrate protein remaining % ≤100%) | B (80%< substrate protein remaining % ≤100%) | A (0% ≤ substrate protein remaining % ≤80%) | 
